Measurements as given in patent publication US8673880B2, “Prevention and/or treatment of neurodegenerative disorders” (The University Of Liverpool, priority 2006, dated 2014).

What was measured:
Assay type in all cases: biochemical
Factor Xa = assay: Anti Factor Xa (anticoagulant) activity, Coatest Heparin test kit; details: for Anti-coagulant activity: anti-factor Xa, percentage of PIMH (defined as 100%); for Anticoagulant activity (%): Example 2, Table 2, standard heparin = 100
Procedure: Anti Factor Xa activity was measured against a porcine mucosal heparin (PIMH) standard of known activity (Sigma, UK) using a diagnostic grade Coatest Heparin test kit (Chromogenix, MA, USA), adapted to a 96 well plate format, reading A405 (Polarstar plate reader (BMG LabTechnologies, UK)).

recombinant human BACE-1 = molecular target: T1, recombinant human BACE-1 (Homo sapiens, UniProt P56817); assay: BACE-1 inhibition by in vitro FRET peptide cleavage assay; details: for IC50 (BACE-1): FRET peptide cleavage; for Therapeutic ratio (BACE/Xa): calculated from IC50 against BACE-1/anticoagulant activity; for EC50 (BACE inhibition): Example 2, Table 2
T1 construct: purchased Sigma
Procedure: In vitro cleavage of APP by BACE-1 was measured using a FRET peptide cleavage assay.
The ability of the compounds to inhibit BACE-1 cleavage of APP was assessed using a fluorescent resonance energy transfer (FRET) peptide cleavage assay employing the FRET peptide 5-FAM-Glu-Val-Asn-Leu-Asp-Ala-Phe-Lys(QXL520)-OH, containing the Swedish amino acid variant (Anaspec, Inc., CA, USA). When intact, the amino terminal fluorophore is quenched, but upon enzymatic cleavage the fluorophore is released from quencher and fluoresces (520 nm). Assays were performed in triplicate in 96 well black plates (20 mM sodium acetate, 0.1% Triton-X-100, pH 4.5; 2.5 μM peptide per well and 4.0×10^−3 units/well of recombinant human BACE-1 (Sigma)). The appropriate controls for enzyme activity and background fluorescence were employed and plates were incubated (1 h, 25° C., stopped with 2.5 M sodium acetate) Inhibitors were added in a concentration range from 1000-0.0001 μg/ml. Fluorescence 480ex/520em was measured on a Polarstar plate reader (BMG LabTechnologies, UK) and data were analysed by plotting log10 concentration of inhibitor against percent inhibition and fitting a four parameter sigmoidal curve using BioDataFit 1.02 (Chang Bioscience, USA).

human recombinant renin = molecular target: T2, human recombinant renin (Homo sapiens, UniProt P00797); assay: Renin FRET peptide cleavage assay; details: concentrations up to 1000 μg/ml
T2 construct: purchased Cayman Chemical
T2 sequence (P00797 67-406): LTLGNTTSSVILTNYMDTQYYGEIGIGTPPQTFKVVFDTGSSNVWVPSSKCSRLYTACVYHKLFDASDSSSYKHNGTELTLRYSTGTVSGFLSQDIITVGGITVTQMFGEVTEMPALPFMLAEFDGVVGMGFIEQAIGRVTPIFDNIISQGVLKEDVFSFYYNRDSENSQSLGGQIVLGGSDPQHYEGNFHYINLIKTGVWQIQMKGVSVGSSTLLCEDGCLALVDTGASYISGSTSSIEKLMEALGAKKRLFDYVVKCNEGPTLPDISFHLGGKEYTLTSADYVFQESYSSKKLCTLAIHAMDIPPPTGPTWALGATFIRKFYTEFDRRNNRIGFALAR
Procedure: (§1) The ability of compounds to inhibit the structurally related proteases pepsin and cathepsin D (Sigma, UK) was measured by FRET cleavage assay (5 pmol enzyme/well, EnzChek Protease Assay kit (Molecular Probes, UK) according to manufacturer's instructions). Activity against human recombinant renin (Cayman Chemical, MI, USA), was measured by FRET peptide cleavage assay (0.08 pMoles enzyme/well, using the Renin Substrate 1 (Molecular Probes, Invitrogen, UK) according to manufacturer's instructions. IC50 values were calculated as described above.

[1] = molecular target: T3, Aβ peptide (Amyloid β Protein Fragment 1-42) (Homo sapiens, UniProt P05067); assay: Aβ aggregation assay (Thioflavin T); details: for increase in the time taken to reach half-maximal peptide aggregation: concentration of 100 μg/ml, compared to parental PMH; for rate of A-β aggregation, % slower: compared to intact heparin
T3 construct: Amyloid β Protein Fragment 1-42; Sigma A9810; purchased Sigma A9810
Procedure: The Aβ peptide was prepared by addition of 1 ml of hexafluoro-2-propanol to 1 mg Aβ peptide (Amyloid β Protein Fragment 1-42; Sigma A9810) and disaggregation at room temperature for 1 hour. The resulting material was divided into 50 μl (50 μg) aliquots and dried in Speed Vac for approximately 2 hours, followed by storage at −20° C. The Thioflavin T (Sigma T-3516) solution was prepared as a 5 mM solution in 50 mM Glycine-NaOH pH 8.5, and stored in the dark at 4° C. Thioflavin T assay buffer comprising 20 μl Thioflavin T solution with 50 μl 1M DTT and […] assay Buffer (10 mM HEPES/100 mM NaCl pH 7.4) was kept on ice. 50 μl of 20 mM NaOH was added to 50 μg of Aβ peptide. 2.5 ml of Thioflavin T assay buffer was then added to this Aβ peptide solution, making “Aβ buffer”. The remaining 2.5 ml of Thioflavin T assay buffer was the blank buffer, and both were kept on ice. Six replicates of sample dilutions (1:1 in assay buffer) were pipetted into a 96 well black plate (Greiner 655076; 100 μl/well) and the plate was kept on ice. 100 μl/well of Aβ buffer was added to the samples (in triplicate), and 100 μl/well of the blank buffer added to a further three sample replicates. The 96 well plate was read (450 nm excitation wavelength and 490 nm emission wavelength), taking a reading every 150 seconds for 250 cycles one plate reader set at 37° C.

cathepsin D = molecular target: T4, cathepsin D (Homo sapiens, UniProt P07339); assay: Cathepsin D FRET cleavage assay
T4 construct: purchased Sigma, UK
Procedure: as §1

pepsin = molecular target: T5, pepsin (Sus scrofa, UniProt P00791); assay: Pepsin FRET cleavage assay
T5 construct: purchased Sigma, UK
Procedure: as §1

T5 sequence (P00791 60-385): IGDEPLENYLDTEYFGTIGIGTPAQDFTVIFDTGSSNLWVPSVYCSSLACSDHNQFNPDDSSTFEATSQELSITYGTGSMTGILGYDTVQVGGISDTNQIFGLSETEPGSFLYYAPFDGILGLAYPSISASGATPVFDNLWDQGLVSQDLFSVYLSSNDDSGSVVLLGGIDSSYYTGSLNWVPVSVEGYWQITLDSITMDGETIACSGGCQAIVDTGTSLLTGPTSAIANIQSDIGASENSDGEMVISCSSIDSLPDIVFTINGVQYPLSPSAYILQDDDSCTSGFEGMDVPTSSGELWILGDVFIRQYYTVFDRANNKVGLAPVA
T1 sequence (P56817 46-501): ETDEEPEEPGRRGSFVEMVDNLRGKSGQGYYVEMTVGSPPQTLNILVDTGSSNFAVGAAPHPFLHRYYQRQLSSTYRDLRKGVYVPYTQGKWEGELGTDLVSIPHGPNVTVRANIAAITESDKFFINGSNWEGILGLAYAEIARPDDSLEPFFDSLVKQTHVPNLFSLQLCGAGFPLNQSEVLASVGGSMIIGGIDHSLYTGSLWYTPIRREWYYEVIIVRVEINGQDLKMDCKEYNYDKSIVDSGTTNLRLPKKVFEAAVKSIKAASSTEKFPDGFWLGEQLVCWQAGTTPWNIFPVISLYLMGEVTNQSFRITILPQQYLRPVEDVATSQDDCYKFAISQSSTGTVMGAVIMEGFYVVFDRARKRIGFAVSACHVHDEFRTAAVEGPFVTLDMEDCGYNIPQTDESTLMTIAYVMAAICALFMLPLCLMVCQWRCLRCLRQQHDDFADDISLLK
T4 sequence (P07339 65-412, species assumed): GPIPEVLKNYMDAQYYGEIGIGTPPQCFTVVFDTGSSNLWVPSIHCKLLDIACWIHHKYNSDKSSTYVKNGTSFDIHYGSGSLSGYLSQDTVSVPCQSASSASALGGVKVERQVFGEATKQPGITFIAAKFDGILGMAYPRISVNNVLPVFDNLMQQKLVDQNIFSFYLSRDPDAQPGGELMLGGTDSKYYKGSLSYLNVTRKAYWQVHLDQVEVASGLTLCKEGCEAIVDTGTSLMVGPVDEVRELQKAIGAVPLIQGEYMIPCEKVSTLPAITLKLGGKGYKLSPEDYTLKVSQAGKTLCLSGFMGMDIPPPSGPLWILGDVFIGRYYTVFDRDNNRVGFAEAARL
T3 sequence (P05067 672-713): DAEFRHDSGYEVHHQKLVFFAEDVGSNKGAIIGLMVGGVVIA

Compound | Anti-coagulant activity (Factor Xa) | IC50 (BACE-1) (recombinant human BACE-1; Table 1) | Therapeutic ratio (BACE/Xa) (recombinant human BACE-1) | inhibitory effect on renin (human recombinant renin) | increase in the time taken to reach half-maximal peptide aggregation [1] | IC50 against cathepsin D (cathepsin D) | IC50 against pepsin (pepsin) | other results
6-O-desulphated heparin [Compound 5] | 0.5% | 0.100 μg/ml | 61 |  |  |  |  | 
6-O-desulphated, 2-O-desulphated heparin [Compound 7] | 0.03% | 0.786 μg/ml | 123 |  |  |  |  | 
6-O-desulphated, 2-O-desulphated, N-acetylated heparin [Compound 8] | 0.03% | >100 μg/ml | 1 |  |  |  |  | BACE-1 inhibitory activity in words (recombinant human BACE-1; Table 1): almost abolished
6-O-desulphated, N-acetylated heparin [Compound 6] | 0.03% | 0.410 μg/ml | 237 |  |  |  |  | 
NCCCS(=O)(=O)O [Compound 10, 3-amino-1-propanesulfonic acid, reference compound] |  | No |  |  |  |  |  | inhibition of BACE-1 (recombinant human BACE-1; even at high concentrations (1000 μg/ml)): did not inhibit BACE-1
Ido 2-de-O-sulphated heparin [Compound 3] | 0.4% | 0.053 μg/ml | 147 | None of the compounds exerted an inhibitory effect on renin | 50% | 0.77 µg/mL |  | 
Ido 2-de-O-sulphated, N-acetylated heparin [Compound 4] | 0.03% | 0.091 μg/ml | 1092 | None of the compounds exerted an inhibitory effect on renin | 100% |  | > 1000 µg/mL | rate of A-β aggregation, % slower ([1]; FIG. 2): 100%; anti factor Xa activity, fold lower than PIMH (Factor Xa; Example 1): at least 3000 fold; Anticoagulant activity (%) (Factor Xa): <0.03%; EC50 fold lower than unmodified PMH (recombinant human BACE-1; Example 2): approximately 3 fold; EC50 (BACE inhibition) (recombinant human BACE-1): 0.089 µg/mL
N-acetyl heparin [Compound 2] | 0.03% | 0.031 μg/ml | 3136 | None of the compounds exerted an inhibitory effect on renin | 50% | 0.27 µg/mL | 3.27 µg/mL | fold less potent than PIMH against pepsin (pepsin; compared with compound 1): 14 fold; rate of A-β aggregation, % slower ([1]; FIG. 2): 50%
Per-sulphated heparin [Compound 9] | 35.0% | 0.053 μg/ml | 2 |  |  |  |  | 
porcine intestinal mucosal heparin [Compound 1, reference compound] | 100% | 0.028 μg/ml | 1 | None of the compounds exerted an inhibitory effect on renin |  | 0.1 µg/mL | 0.23 µg/mL | enhancement of Aβ aggregation ([1]; FIG. 2): maximum enhancement; Anticoagulant activity (%) (Factor Xa): 100%; EC50 (BACE inhibition) (recombinant human BACE-1): 0.027 µg/mL
